Values joined by “and” are separate entries in the source; they are usually repeats but may differ in a detail not shown here. Equal values may be shown once. Read-outs that look alike come from different tables or passages of the source.
Tests used:
[1] = system: T. b. rhodesiense (STIB 900); assay: In vitro trypanocidal assay (Alamar Blue); type: cell-based, Trypanosoma brucei rhodesiense
Experimental: (§1) 10 µL of Alamar Blue was added for the final 3 h to determine viability. […] The IC50 values were calculated from the sigmoidal inhibition curves. For cytotoxicity, 4×10^4/mL L-6 rat skeletal myoblast cells were used, and incubations and assessments carried out as above.

[2] = system: T. b. gambiense (STIB 930); assay: In vitro trypanocidal assay (Alamar Blue); type: cell-based, Trypanosoma brucei gambiense; conditions: Trypanosoma brucei, 72 h; read-out: IC50
Experimental: Parasites were cultured with or without the test article at a concentration of 3×10^4/mL in Minimal Essential Medium, according to Baltz et al., with the following modifications: 0.2 mM 2-mercaptoethanol, 1 mM Na-pyruvate, 0.5 mM hypoxanthine and 15% heat inactivated horse serum at 37°C in 5% CO2 in 96-well microtitre plates for 72 h. 10 µL of Alamar Blue was added for the final 3 h to determine viability. The assay was assessed by reading the fluorescence in each well at an excitation wavelength of 536 nm and at an emission wavelength of 588 nm. The IC50 values were calculated from the sigmoidal inhibition curves. For cytotoxicity, 4×10^4/mL L-6 rat skeletal myoblast cells were used, and incubations and assessments carried out as above.

[3] = system: L-6 rat myoblast cells; assay: Cytotoxicity assay; type: cell-based; conditions: 72 h, read-out: IC50
Experimental: as §1

[4] = system: rat liver cells; assay: Ex vivo unscheduled DNA synthesis; type: in vivo; conditions: 75 mg/kg, positive control
Experimental: Groups of young male Sprague-Dawley rats received fexinidazole at doses of 500, 1000, or 2000 mg/kg orally, and the livers were sampled either 2–4 h or 12–14 h after administration. Hepatocyte suspensions were prepared and incubated in the presence of […] thymidine. Slides of fixed hepatocytes were coated in photographic emulsion and stored for 14 days at 4°C in the dark. The silver grains above the nuclei or cytoplasm (background) were counted, providing a measure of DNA uptake during DNA repair. The difference between these two counts indicated the extent of DNA repair (nuclear net grain count).

[5] = system: human lymphocytes; assay: In vitro micronucleus test; type: cell-based; conditions: 6.25 µg/mL, +S9, positive control
Experimental: Duplicate human lymphocyte cultures were prepared from the pooled blood of two donors in two independent experiments. […] The test concentrations for micronucleus analysis were selected by evaluating the effect of fexinidazole on the replication index (RI). In each experiment, micronuclei were analysed at three concentrations. Similar tests were carried out on fexinidazole sulfone. As per the Ames test, this was carried out in the absence of rat liver S9 only.

[6] = system: bone marrow polychromatic erythrocytes; assay: In vivo bone marrow micronucleus test; set-up: species or system mouse; conditions: 4.0 mg/kg, positive control
Experimental: Groups of six young adult male Crl:CD-1 (ICR) mice were treated with fexinidazole at two oral doses of 0, 500, 1000, or 2000 mg/kg given 24 h apart, and bone marrows were harvested 24 h after the second dose. Slides of bone marrow cells were prepared, Giemsa stained, and 2000 polychromatic erythrocytes per animal were scored for micronuclei.

[7] = in vivo; conditions: male, NMRI, mouse, po, 200 mg/kg/day
Experimental: The study was conducted according to the study protocol [1].
gavage daily for 5 consecutive days at a dose of 200 mg/kg in a 5 % tween 80/ 0.5 %
Formulation Preparation and Concentration Check
were prepared according to the procedure already developed [2]; a sufficient volume of each
suspension was prepared in order to support the 5-day repeated oral administration. The
suspensions were stored at +4°C. The supportive stability data for the Fexinidazole
suspension after 7 days at +4°C was performed.
a specific, not validated, HPLC-UV method [2]. Three samples were analyzed for each
Sample Collection and Handling
About 0.05-0.07 mL of blood/sampling time were taken from the saphenous vein using
heparinized tubes (pre-cooled in an ice/water bath) and were centrifuged at 10000g for 3
minutes at 4°C. The separated plasma was stored at -80°C until analysis. Blood was taken at
validated LC-MS-MS methods.
Pharmacokinetic Calculations
Pharmacokinetic evaluation was carried out using a non-compartmental approach with the
aid of the Watson package (v. 6.4.0.04, Thermo Fisher Scientific, Waltham, MA, USA).
For the calculations, pre-dose concentrations of both compounds were set equal to zero.
After both compounds, on Day 5, Cmax and tmax were read from the raw plasma data as the
coordinates of the highest measured concentration. The area under plasma concentration vs.
time curve to finite time, AUC0-t(last), was determined by the linear trapezoidal rule up to the
last detectable concentration. The half-life of the terminal phase, t1/2,z, was determined by
linear regression analysis of the natural-log concentration vs. time curve, where t1/2,z =
ln(2)/slope of the regression line.
Descriptive statistics (mean ± SD, %CV) were reported for plasma concentrations and
pharmacokinetic parameters sorted by compound.
reported to three significant figures.
Plasma concentrations of sulphoxide and sulphone Fexinidazole metabolites were determined
by a LC-MS-MS method. The lower limit of the bioanalytical method was 5 ng/mL (run 1)
(v. 6.4.0.04, Thermo Fisher Scientific, Waltham, MA, USA).
Pharmacokinetic evaluations of the sulphone and sulphoxide metabolites were carried out
using non-compartmental approach with the aid of the Watson package (v. 6.4.0.04, Thermo
Fisher Scientific, Waltham, MA, USA).
After both doses, for the calculations, the pre-dose concentrations of the metabolites were set
Cmax and tmax were read from raw data as the coordinates of the highest measured

[8] = Trypanosoma brucei, 72 h; read-out: IC50

Which results are given for `NCCCC(N)(C(=O)O)C(F)F` (centres unmarked) [Eflornithine]?
IC50 [1, 8]: 0.9 µg/mL and 3.8 µM; IC50 [2]: 0.4 µg/mL and 1.67 µM; IC50 [3]: 12 µg/mL and 51 µM

With `CC(=O)Nc1ccc2c(c1)Cc1ccccc1-2` [2-acetamidofluorene, reference compound] as the molecule, how does the “Net nuclear grain count (12–14 h)” value [4] read?
The value was 9.8.

For `O=P1(N(CCCl)CCCl)NCCCO1` (centres unmarked) [Cyclophosphamide, reference compound], which Micronucleated binucleate cells ([5]; 24-h PHA) is on record?
The Micronucleated binucleate cells was 3.60%.

And the Micronucleated binucleate cells ([5]; 48-h PHA)?
The Micronucleated binucleate cells was 12.85%.

What about the “Micronucleated PCE/1000” value [6] of the same molecule?
Its value is 19.3.

And the PCE/NCE [6]?
The PCE/NCE was 0.89.

Which IC50 ([1]; Trypanosoma brucei, 72 h, read-out: IC50) does the source give for `CC1CS(=O)(=O)CCN1/N=C/c1ccc([N+](=O)[O-])o1` (centres unmarked) [Nifurtimox] here?
The IC50 was 0.4 µg/mL and 1.44 µM.

And the IC50 [2]?
The IC50 was 0.31 µg/mL and 1.08 µM.

What about the IC50 [3] of the same molecule?
The IC50 was 25 µg/mL and 87 µM.

And the AUC(0-t) [7]?
The AUC(0-t) was 45700 ± 5880 ng·h/mL.

And the Cmax [7]?
The Cmax was 9250 ± 765 ng/mL.

And the Tmax [7]?
The Tmax was 1.5 ± 1.32 h.

What about the half-life [7] of the same molecule?
Its half-life is 3.12 ± 1.45 h.

For `Cc1ccc(C(=O)Nc2ccc(S(=O)(=O)O)c3cc(S(=O)(=O)O)cc(S(=O)(=O)O)c23)cc1NC(=O)c1cccc(NC(=O)Nc2cccc(C(=O)Nc3cc(C(=O)Nc4ccc(S(=O)(=O)O)c5cc(S(=O)(=O)O)cc(S(=O)(=O)O)c45)ccc3C)c2)c1` [Suramin], which IC50 [1, 8] is on record?
The IC50 was 0.062 µg/mL and 46 nM.

And the IC50 [3]?
The IC50 was > 90 µg/mL and > 70 µM.

Source: article PMC3006138, “Fexinidazole – A New Oral Nitroimidazole Drug Candidate Entering Clinical Development for the Treatment of Sleeping Sickness” (PLoS Neglected Tropical Diseases, 2010)
